Tests used:
Mus musculus [1] = test: ED50 value determined as oxotremorine antagonism by measuring salivation in mice (in vivo); assay type: functional
Mus musculus [2] = test: ED50 value determined as oxotremorine antagonism by measuring tremors in mice (in vivo); assay type: functional
Mus musculus [3] = test: ED50 value as cholinergic agonism by measuring lacrimation in mice (in vivo); assay type: functional
Mus musculus [4] = test: ED50 value as cholinergic agonist by measuring salivation in mice (in vivo); assay type: functional
Mus musculus [5] = test: ED50 value as cholinergic agonist by measuring tremors in mice (in vivo); assay type: functional
Mus musculus [6] = test: ED50 value determined as oxotremorine antagonism by measuring lacrimation in mice (in vivo); assay type: functional
[7] = target: Muscarinic acetylcholine receptor; test: Binding affinity to muscarinic acetylcholine receptor was determined in presence of [3H]OXO-M radioligand (in vitro); assay type: protein assay
[8] = target: Muscarinic acetylcholine receptor; test: Binding affinity to muscarinic acetylcholine receptor was determined in presence of [3H]QNB radioligand (in vitro); assay type: protein assay
[9] = target: Muscarinic acetylcholine receptor (Rattus norvegicus) (UniProt P08482+P08483+P08485+P08911+P10980); test: Ratio of Ki value for QNB to that of Ki value for Oxo-M.; assay type: protein assay

Row | SMILES | ED50 (Mus musculus [1]) [mg/kg] | ED50 (Mus musculus [2]) [mg/kg] | ED50 (Mus musculus [3]) [mg/kg] | ED50 (Mus musculus [4]) [mg/kg] | ED50 (Mus musculus [5]) [mg/kg] | ED50 (Mus musculus [6]) [mg/kg] | Ki [7] [nM] | Ki [8] [nM] | Ki ratio [9]
1 | Cc1cncn1CC#CCN1CCCC1=O | > 100 | > 100 | > 100 | > 100 | 2.5 | 0.8 | 3.2 | 64 | 20
2 | CCOC(=O)N(C)CC#CCn1cncc1C | 66 | 30 | > 100 | > 100 | 97 | 66 | 156 | 568 | 3.6
3 | COC(=O)N(C)CC#CCn1cncc1C | 5.4 | > 100 | > 100 |  | 4.5 | 3 | 36 | 1001 | 28
4 | COC(=O)N(C)C(C)C#CCn1ccnc1 (centres undefined) | > 100 | > 100 | 8 | 8 | 6.6 | > 100 | 13 | 1355 | 104
5 | Cc1cncn1CC#CCN1CCOC1=O | 80 | > 100 | > 100 | > 100 | 30 | 37 | 18 | 151 | 8.4
6 | Cc1c[n+](C)cn1CC#CCN1CCCC1=O.[I-] | 25 | > 100 | > 100 | > 100 | 30 | 9.7 | 53 | 303 | 5.7
7 | O=C1OCCN1CC#CCn1ccnc1 | > 100 | > 100 | 3 | 2 | 3 | > 100 | 5.7 | 929 | 164
8 | COC(=O)N(C)C(C)C#CCn1cncc1C (centres undefined) | 6.6 | > 100 | > 100 | > 100 | 97 | 3.7 | 9.5 | 97 | 10
9 | CCOC(=O)N(C)C(C)C#CCn1cncc1C (centres undefined) | 17.3 | 30 | > 100 | > 100 | > 100 | 9.7 | 156 | 568 | 3.6
10 | O=C1OCCN1CC#CCN1CCCC1 | > 10 | > 10 | > 10 | 5.4 | 3.7 | > 10 | 8.9 | 1362 | 153
11 | CC(C#CCN1CCCC1)N1CCCC1=O (centres undefined) | 0.55 | 3 | > 30 | > 30 | > 30 | 0.55 | 1.1 | 14 | 13
12 | COC(=O)N(C)CC#CCN1CCCC1 | > 10 | > 10 | 3 | 5.5 | 1.4 | > 10 | 2.6 | 550 | 211
13 | Cc1cncn1CC#CC(C)N1CCCC1=O (centres undefined) | 2.5 | 25.4 | > 100 | > 100 | > 100 | 0.45 | 5.22 | 16.8 | 3.2
14 | Cc1cncn1CC#CCN1C(=O)CCC1C (centres undefined) | 1.4 | 14.2 | > 100 | > 100 | > 100 | 0.8 | 1.68 | 11.6 | 6.9
15 | COC(=O)N(C)C(C)C#CCN1CCCC1 (centres undefined) | > 100 | > 100 | 20.9 | 14.2 | 9.7 | > 100 | 1.5 | 64 | 43
16 | Cc1cncn1CC#CCn1ccn(C)c1=O | 22 | > 100 | > 100 |  | 100 | 8 | 39 | 614 | 16
17 | CC1CCC(=O)N1CC#CCN1CCCC1 (centres undefined) | 2 | 1.7 | > 30 | > 30 | > 30 | 0.55 | 1.5 | 14 | 9.4
18 | CC(C#CCN(C)C)N1CCCC1=O (centres undefined) | > 100 | > 100 | 6.6 | 6.6 | 100 | > 100 | 26.4 | 1702 | 65
19 | CN(C)C(=O)N(C)CC#CCN1CCCC1 | > 10 | > 10 | > 10 | > 10 | 1.2 | 6.6 | 3.6 | 140 | 39
20 | COC(=O)NCC#CCn1cncc1C | 80 | > 100 | > 100 | > 100 | > 100 | 66 | 191 | 6825 | 36
21 | CC1CCC(=O)N1CC#CCN(C)C (centres undefined) | > 100 | > 100 | 3.7 | 3 | 1.7 | > 100 | 7.1 | 690 | 97
22 | CCOC(=O)N(C)C(C)C#CCN1CCCC1 (centres undefined) | > 100 | > 100 | > 100 | > 100 | > 100 | 97 | 22 | 110 | 5
23 | CC(=O)N(C)CC#CCN1CCCC1 | > 10 | > 10 | 0.55 | 0.55 | 0.3 | > 10 | 0.92 | 260 | 283
24 | CCOC(=O)N(C)CC#CCN1CCCC1 | > 100 | > 100 | > 100 | > 100 | 66 | > 100 | 65 | 4219 | 65
